# Reference: PMC5007854, “β-Nitrostyrenes as Potential Anti-leishmanial Agents” (Frontiers in Microbiology, 2016)
# Like-named read-outs stand apart in the source and are kept apart here.
# Legend:
# Assay type in all cases: cell-based
# [1] = test system: Pseudomonas aeruginosa ATCC 27853; assay: Broth microdilution antibacterial susceptibility (MIC/MBC); conditions: Pseudomonas aeruginosa; for MIC: broth microdilution, 35°C, 24 h, read-out: MIC, Pa ATCC 27853; for MBC: ≥99.9% reduction of original inoculum, read-out: MBC, Pa ATCC 27853
# Description: (§1) One reference each of the following species was used for their in vitro susceptibility to β-nitrostyrene in this study: Staphylococcus aureus ATCC 29213, Staphylococcus epidermidis ATCC 14990, Escherichia coli ATCC 25922, Pseudomonas aeruginosa ATCC 27853, Candida albicans ATCC 90028, Candida glabrata ATCC 90030, Aspergillus fumigatus ATCC 16424 and Aspergillus niger ATCC 16404. These strains were procured from the American Type Culture Collection (ATCC, Manassas, VA, USA).
# (§2) The antibacterial and antifungal activities of the β-nitrostyrenes were performed by broth microdilution methods as per the guidelines of Clinical and Laboratory Standard Institute (Wayne, [1998], [2008a],[b],[c]) by using Mueller-Hinton broth (MHB; Becton-Dickinson, Cockeysville, MD, USA) supplemented with calcium (25 mg/L) and magnesium (12.5 mg/L) for bacterial strains while as RPMI 1640 medium with L-glutamine and without sodium bicarbonate, buffered to pH 7.0 with 0.165 M 3-(N-morpholino) propanesulfonic acid (MOPS; both from Sigma) was used for fungal strains. Stock solutions were prepared in 100% dimethyl sulfoxide (DMSO; Sigma; distilled water was used for ciprofloxacin), with a final DMSO concentration of 1% (vol. per vol.) and two-fold serial dilutions were prepared in media in amounts of 100 μL per well in 96-well U-bottom microtiter plates (Tarsons, Kolkata, India) to yield twice the final concentration required for testing, which ranged from 64 to 0.12 μg/mL for β-nitrostyrenes and 16 to 0.03 μg/mL for ciprofloxacin as well as amphotericin B. Stock inoculum suspensions of the bacteria, Candida species and Aspergillus species were prepared in sterile normal saline (0.85%) containing 0.05% polysorbate 20 (NST) from overnight (3 to 5-day old for Aspergillus species) strains grown on Trypticase soy agar (TSA; Becton-Dickinson) and potato dextrose agar (Difco Laboratories, Detroit, MI, USA) respectively at 35°C. Inocula were verified for each assay by plating onto agar plates for colony enumeration. These suspensions were further diluted in the respective test medium and a 100 μl volume of this diluted inoculum was added to each well of the plate, resulting in a final inoculum concentration of approximately 5 × 10^5 CFU/mL for bacter1ia, (Wayne, [2008a]) approximately 2.5 × 10^4 CFU/ml for Candida species (Pfaller et al., [2004]) while as 0.4 × 10^4 to 5 × 10^4 CFU/mL for Aspergillus species (Wayne, [2008c]). Untreated growth control, vehicle control (DMSO) and sterility control wells were included for each isolate tested. Ciprofloxacin and amphotericin B served as the standard drug controls for bacterial and fungal strains, respectively. The microtiter plates were incubated at 35°C for 24 h for bacterial strains and 48 h for fungal strains. The plates were read visually and the minimum inhibitory concentration (MIC) was defined as the lowest concentration of test sample that prevented visible growth with respect to the growth control.
# (§3) The minimum bactericidal concentration (MBC) and minimum fungicidal concentration (MFC) were determined by plating 100 μl volumes on agar plates from the wells showing no visible growth (clear MIC well). The plates were incubated as described above in MIC measurements. […] All experiments were conducted twice in duplicates on separate occasions with freshly prepared inoculums and stock solutions.
# [2] = test system: Staphylococcus epidermidis ATCC 14990; assay: as above; conditions: for MIC / MBC: Staphylococcus epidermidis; for MIC: read-out: MIC, Se ATCC 14990; for MBC: ≥99.9% reduction of original inoculum, read-out: MBC, Se ATCC 14990
# Description: as §1, §2, §3
# [3] = test system: Escherichia coli ATCC 25922; assay: as above; conditions: Escherichia coli; for MIC: broth microdilution, 35°C, 24 h, read-out: MIC, Ec ATCC 25922; for MBC: ≥99.9% reduction of original inoculum, read-out: MBC, Ec ATCC 25922
# Description: as §1, §2, §3
# [4] = test system: Staphylococcus aureus ATCC 29213; assay: as above; conditions: for MIC / MBC: Staphylococcus aureus; for MIC: read-out: MIC, Sa ATCC 29213; for MBC: ≥99.9% reduction of original inoculum, read-out: MBC, Sa ATCC 29213
# Description: as §1, §2, §3
# [5] = test system: Aspergillus fumigatus ATCC 16424; assay: Broth microdilution antifungal susceptibility (MIC/MFC); conditions: Aspergillus fumigatus; for MIC: broth microdilution, 35°C, 48 h, read-out: MIC, Af ATCC 16424; for MFC: ≥99.9% reduction of original inoculum, read-out: MFC, Af ATCC 16424
# Description: as §1, §2, §3
# [6] = test system: Candida glabrata ATCC 90030; assay: as above; conditions: Nakaseomyces glabratus; for MIC: broth microdilution, 35°C, 48 h, read-out: MIC, Cg ATCC 90030; for MFC: ≥99.9% reduction of original inoculum, read-out: MFC, Cg ATCC 90030
# Description: as §1, §2, §3
# [7] = test system: Candida albicans ATCC 90028; assay: as above; conditions: Candida albicans; for MIC: broth microdilution, 35°C, 48 h, read-out: MIC, Ca ATCC 90028; for MFC: ≥99.9% reduction of original inoculum, read-out: MFC, Ca ATCC 90028
# Description: as §1, §2, §3
# [8] = test system: Aspergillus niger ATCC 16404; assay: as above; conditions: Aspergillus niger; for MIC: broth microdilution, 35°C, 48 h, read-out: MIC, An ATCC 16404; for MFC: ≥99.9% reduction of original inoculum, read-out: MFC, An ATCC 16404
# Description: as §1, §2, §3
# [9] = ATCC14990, 24 h, broth microdilution, 35°C, 24 h
# [10] = ATCC29213, 24 h, broth microdilution, 35°C, 24 h
# [11] = broth microdilution, 35°C, 24 h
# [12] = ATCC14990, broth microdilution, 35°C, 24 h
# [13] = ATCC29213, broth microdilution, 35°C, 24 h
SMILES,"MIC ([1]; ATCC27853, 24 h)",MBC ([1]; ATCC27853),"MIC [2, 9]",MBC ([2]; ATCC14990),"MIC ([3]; ATCC25922, 24 h)",MBC ([3]; ATCC25922),"MIC [4, 10]",MBC ([4]; ATCC29213),"MIC ([5]; ATCC16424, 48 h)",MFC ([5]; ATCC16424),"MIC ([6]; ATCC90030, 48 h)",MFC ([6]; ATCC90030),"MIC ([7]; ATCC90028, 48 h)",MFC ([7]; ATCC90028),"MIC ([8]; ATCC16404, 48 h)",MFC ([8]; ATCC16404),also measured
"COc1ccc(/C=C/[N+](=O)[O-])cc1 [Compound 13, 1-methoxy-4-((E)-2-nitrovinyl) benzene]",> 64 µg/mL,> 64 µg/mL,32 µg/mL,32 µg/mL,> 64 µg/mL,> 64 µg/mL,64 µg/mL,64 µg/mL,64 µg/mL,> 64 µg/mL,32 µg/mL,32 µg/mL,64 µg/mL,64 µg/mL,64 µg/mL,64 µg/mL,–
"CC/C(=C\c1ccc(Cl)cc1)[N+](=O)[O-] [Compound 3, 1-chloro-4-((E)-2-nitrobut-1-enyl) benzene]",–,> 64 µg/mL,2 to 16 µg/mL,2 µg/mL,–,> 64 µg/mL,2 to 32 µg/mL,4 µg/mL,–,64 µg/mL,–,> 64 µg/mL,–,> 64 µg/mL,–,32 µg/mL,"MIC, Se ATCC 14990 [2, 11]: 2 µg/mL; MIC, Sa ATCC 29213 [4, 11]: 4 µg/mL"
"O=[N+]([O-])/C=C/c1c[nH]c2ccccc12 [Compound 28, 3-((E)-2-nitrovinyl)-1H-indole]",> 64 µg/mL,> 64 µg/mL,64 µg/mL,64 µg/mL,64 µg/mL,> 64 µg/mL,64 µg/mL,> 64 µg/mL,16 µg/mL,16 µg/mL,16 µg/mL,16 µg/mL,32 µg/mL,32 µg/mL,8 µg/mL,16 µg/mL,–
"O=[N+]([O-])/C=C/c1ccc(Cl)cc1 [Compound 1, 1-chloro-4-((E)-2-nitrovinyl) benzene]",32 µg/mL,64 µg/mL,16 µg/mL,16 µg/mL,32 µg/mL,32 µg/mL,32 µg/mL,32 µg/mL,8 µg/mL,8 µg/mL,4 µg/mL,4 µg/mL,32 µg/mL,32 µg/mL,4 µg/mL,4 µg/mL,–
"C/C(=C\c1ccc(Cl)cc1)[N+](=O)[O-] [Compound 2, 1-chloro-4-((E)-2-nitroprop-1-enyl) benzene]",–,> 64 µg/mL,–,32 µg/mL,–,> 64 µg/mL,–,> 64 µg/mL,–,> 64 µg/mL,–,32 µg/mL,–,> 64 µg/mL,–,> 64 µg/mL,"MIC ([1]; ATCC27853): > 64 µg/mL; MIC [2, 12]: 32 µg/mL; MIC ([3]; ATCC25922): > 64 µg/mL; MIC [4, 13]: > 64 µg/mL; MIC ([5]; ATCC16424): > 64 µg/mL; MIC ([6]; ATCC90030): 32 µg/mL; MIC ([7]; ATCC90028): > 64 µg/mL; MIC ([8]; ATCC16404): 64 µg/mL"
"CC/C(=C\c1ccc(N(C)C)cc1)[N+](=O)[O-] [Compound 6, N,N-dimethyl-4-((E)-2-nitrobut-1-enyl) benzenamine]",> 64 µg/mL,> 64 µg/mL,> 64 µg/mL,> 64 µg/mL,> 64 µg/mL,> 64 µg/mL,> 64 µg/mL,> 64 µg/mL,> 64 µg/mL,> 64 µg/mL,32 µg/mL,32 µg/mL,> 64 µg/mL,> 64 µg/mL,64 µg/mL,> 64 µg/mL,–
"CN(C)c1ccc(/C=C/[N+](=O)[O-])cc1 [Compound 4, N,N-dimethyl-4-((E)-2-nitrovinyl) benzenamine]",> 64 µg/mL,> 64 µg/mL,> 64 µg/mL,> 64 µg/mL,> 64 µg/mL,> 64 µg/mL,> 64 µg/mL,> 64 µg/mL,64 µg/mL,> 64 µg/mL,32 µg/mL,32 µg/mL,> 64 µg/mL,> 64 µg/mL,64 µg/mL,> 64 µg/mL,–
"O=[N+]([O-])/C=C/c1cccc(O)c1 [Compound 19, 3-((E)-2-nitrovinyl) phenol]",–,> 64 µg/mL,–,> 64 µg/mL,–,> 64 µg/mL,–,> 64 µg/mL,–,> 64 µg/mL,–,16 µg/mL,–,> 64 µg/mL,–,64 µg/mL,"MIC ([1]; ATCC27853): > 64 µg/mL; MIC [2, 12]: 64 µg/mL; MIC ([3]; ATCC25922): > 64 µg/mL; MIC [4, 13]: > 64 µg/mL; MIC ([5]; ATCC16424): 64 µg/mL; MIC ([6]; ATCC90030): 16 µg/mL; MIC ([7]; ATCC90028): 64 µg/mL; MIC ([8]; ATCC16404): 64 µg/mL"
"O=C(O)c1cn(C2CC2)c2cc(N3CCNCC3)c(F)cc2c1=O [Cipro, Ciprofloxacin, reference compound]",0.25 µg/mL,1 µg/mL,0.25 µg/mL,0.25 µg/mL,< 0.03 µg/mL,< 0.03 µg/mL,0.25 µg/mL,0.5 µg/mL,–,–,–,–,–,–,–,–,–
"C/C(=C\c1ccc(N(C)C)cc1)[N+](=O)[O-] [Compound 5, N,N-dimethyl-4-((E)-2-nitroprop-1-enyl) benzenamine]",> 64 µg/mL,> 64 µg/mL,> 64 µg/mL,> 64 µg/mL,> 64 µg/mL,> 64 µg/mL,> 64 µg/mL,> 64 µg/mL,> 64 µg/mL,> 64 µg/mL,32 µg/mL,32 µg/mL,> 64 µg/mL,> 64 µg/mL,64 µg/mL,> 64 µg/mL,–
"O=[N+]([O-])/C=C/c1ccc(O)cc1 [Compound 16, 4-((E)-2-nitrovinyl) phenol]",> 64 µg/mL,> 64 µg/mL,64 µg/mL,64 µg/mL,64 µg/mL,> 64 µg/mL,64 µg/mL,> 64 µg/mL,16 µg/mL,16 µg/mL,16 µg/mL,16 µg/mL,32 µg/mL,32 µg/mL,8 µg/mL,16 µg/mL,–
